In assay [1] the target is glucosylceramide synthase (GCS) (Homo sapiens (Human), UniProt Q16739). Nature of the assay: UDP-Glo glucosylceramide synthase biochemical assay. The settings on record: endogenous GCS in Golgi preparations isolated from human A375 malignant melanoma skin cells; UDP detection by luminescence. Put shortly:
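Endogenous GCS in A375 Golgi preparations (1.5 μg total protein) was preincubated with compound for 30 min at RT, then reacted with UDP-glucose and ceramide for 20 h at RT. UDP was detected by luciferase luminescence, normalized to DMSO and reference-inhibitor controls, with EC50 and % Emax from a 4PL fit.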

Assay [2] has as its system GD and PD patient-derived induced pluripotent stem cell (iPSC) neurons. As to conditions: Zunke, F. et al., Neuron 2018; cited from earlier work.

For orientation: pIC50 means −log10 of the IC50, conventionally taken in molar units. A higher pIC50 goes with a small IC50.

Molecules are shown by their SMILES. pIC50: −log10 of the molar value.

glucosylceramide synthase (GCS), sequence (Q16739 whole entry): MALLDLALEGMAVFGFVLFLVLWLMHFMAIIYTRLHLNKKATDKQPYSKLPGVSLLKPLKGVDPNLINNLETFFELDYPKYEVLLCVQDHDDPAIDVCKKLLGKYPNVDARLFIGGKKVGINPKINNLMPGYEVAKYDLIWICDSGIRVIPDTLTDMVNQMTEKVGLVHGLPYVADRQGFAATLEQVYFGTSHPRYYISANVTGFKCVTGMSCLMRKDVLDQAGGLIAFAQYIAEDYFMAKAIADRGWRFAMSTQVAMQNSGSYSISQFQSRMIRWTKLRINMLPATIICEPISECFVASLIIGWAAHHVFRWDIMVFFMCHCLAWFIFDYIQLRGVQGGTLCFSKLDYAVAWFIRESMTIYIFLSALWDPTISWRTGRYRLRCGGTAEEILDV

In turn, `COc1ccc(N2CCC3(CCN(c4nc(C5CC5)ncc4CO)C3)C2)cc1` (stereo not drawn) [Compound 125, (2-cyclopropyl-4-(7-(4-methoxyphenyl)-2,7-diazaspiro[4.4]nonan-2-yl)pyrimidin-5-yl)methanol] had a negative-log IC50 (pIC50) in assay [1] of 6.04.
`Cc1nc2c(s1)C(Oc1nc(C3CC3)ncc1C#N)CCC2` (stereo not drawn) [Compound 126, 2-cyclopropyl-4-((2-methyl-4,5,6,7-tetrahydrobenzo[d]thiazol-7-yl)oxy)pyrimidine-5-carbonitrile] showed a pIC50 in assay [1] of 6.01.
`CCCCCCCC(=O)N[C@H](CN1CCCC1)[C@H](O)c1ccc2c(c1)OCCO2` [eliglustat, Eliglustat]: in assay [2], the “formation of pathological α-synuclein aggregates” value is “reverse the formation of pathological α-synuclein aggregates”.

The values above are taken from patent US20250188057A1, “NON-AROMATIC CYCLIC-PYRIMIDINE ANALOGS AS GLUCOSYLCERAMIDE SYNTHASE INHIBITORS” (Merck Sharp & Dohme LLC, priority 2022, published 2025).
